14 compounds from patent US20230002367A1, “BIFUNCTIONAL COMPOUNDS” (Hoffmann-La Roche Inc., priority 2019, published 2023) can be followed below.

Each structure is given as a SMILES string.

The test concerns the target T1, SMARCA2 (Homo sapiens, UniProt P51531).
T1 construct: endogenous in cells
The test can be described thus: SMARCA2 HiBiT degradation assay (cellular). Particulars: for Emax: A549, Emax = amount of residual protein remaining in the cell following compound treatment; for DC50: SMARCA2 HiBiT cells, luminescence readout, 11-point titration from 10 μM, 6 hours or 16 hours, read-out: HiBit A549 SMARCA2 IP. The test is classed as cell-based.

T1 sequence (P51531 whole entry): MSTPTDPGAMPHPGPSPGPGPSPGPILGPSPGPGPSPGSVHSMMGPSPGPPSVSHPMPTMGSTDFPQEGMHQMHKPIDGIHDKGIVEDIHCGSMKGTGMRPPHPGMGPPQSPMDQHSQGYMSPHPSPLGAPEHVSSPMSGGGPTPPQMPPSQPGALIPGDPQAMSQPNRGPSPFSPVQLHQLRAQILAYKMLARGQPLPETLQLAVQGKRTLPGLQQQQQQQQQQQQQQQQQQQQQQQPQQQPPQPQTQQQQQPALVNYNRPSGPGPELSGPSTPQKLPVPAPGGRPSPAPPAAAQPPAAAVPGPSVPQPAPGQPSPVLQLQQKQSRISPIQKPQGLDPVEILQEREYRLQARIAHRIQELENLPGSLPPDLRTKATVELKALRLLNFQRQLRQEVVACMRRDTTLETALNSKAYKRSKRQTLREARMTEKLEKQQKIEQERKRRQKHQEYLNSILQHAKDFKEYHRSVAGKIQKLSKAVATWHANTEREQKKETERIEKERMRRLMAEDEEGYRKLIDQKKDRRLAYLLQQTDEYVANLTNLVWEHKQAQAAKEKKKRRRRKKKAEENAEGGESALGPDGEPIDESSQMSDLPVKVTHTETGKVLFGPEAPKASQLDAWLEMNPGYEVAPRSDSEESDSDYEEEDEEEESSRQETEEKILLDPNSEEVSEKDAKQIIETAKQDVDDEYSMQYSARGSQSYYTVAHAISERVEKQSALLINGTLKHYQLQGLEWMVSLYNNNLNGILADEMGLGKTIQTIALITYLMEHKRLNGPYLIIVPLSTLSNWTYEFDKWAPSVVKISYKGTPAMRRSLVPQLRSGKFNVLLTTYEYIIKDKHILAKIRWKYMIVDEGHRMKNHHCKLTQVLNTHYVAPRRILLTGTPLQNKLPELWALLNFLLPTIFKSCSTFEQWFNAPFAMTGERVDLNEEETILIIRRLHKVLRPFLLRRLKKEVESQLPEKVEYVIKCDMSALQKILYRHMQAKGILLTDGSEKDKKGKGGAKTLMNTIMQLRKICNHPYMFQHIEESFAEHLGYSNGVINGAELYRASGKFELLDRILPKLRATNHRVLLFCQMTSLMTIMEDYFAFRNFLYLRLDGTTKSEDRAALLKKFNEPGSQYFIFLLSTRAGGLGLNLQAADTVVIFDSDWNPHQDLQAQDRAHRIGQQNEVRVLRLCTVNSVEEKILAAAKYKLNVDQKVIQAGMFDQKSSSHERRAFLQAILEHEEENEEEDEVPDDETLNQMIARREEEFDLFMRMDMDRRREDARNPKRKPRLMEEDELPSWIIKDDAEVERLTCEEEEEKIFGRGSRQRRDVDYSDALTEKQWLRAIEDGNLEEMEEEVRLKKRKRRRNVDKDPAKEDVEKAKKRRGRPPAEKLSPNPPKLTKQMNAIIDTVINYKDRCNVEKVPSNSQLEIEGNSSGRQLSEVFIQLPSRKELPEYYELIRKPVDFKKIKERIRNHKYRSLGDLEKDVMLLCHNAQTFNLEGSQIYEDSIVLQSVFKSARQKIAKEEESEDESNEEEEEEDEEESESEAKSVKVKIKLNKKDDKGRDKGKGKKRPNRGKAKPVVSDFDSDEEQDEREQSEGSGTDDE

Turning to `Cc1ncsc1-c1ccc(CNC(=O)[C@@H]2C[C@@H](O)CN2C(=O)[C@@H](NC(=O)CCCCCCCCC(=O)N2CC(Oc3cc(-c4ccccc4O)nnc3N)CC(c3ccccc3)C2)C(C)(C)C)cc1` (mixture of isomers) [Example 65, rac-(2S,4R)-4-hydroxy-N-[[4-(4-methylthiazol-5-yl)phenyl]methyl]-1-[rac-(2S)-2-[[10-[3-[3-amino-6-(2-hydroxyphenyl)pyridazin-4-yl]oxy-5-phenyl-1-piperidyl]-10-oxo-decanoyl]amino]-3,3-dimethyl-butanoyl]pyrrolidine-2-carboxamide], the maximal response (Emax) turned out to be 24% and the DC50 is 1030 nM.
On the same counts, the results for `Cc1ncsc1-c1ccc(CNC(=O)[C@@H]2C[C@@H](O)CN2C(=O)[C@@H](NC(=O)CCCCCCCCCC(=O)N2CCN(Cc3cccc(N4C5CCC4CN(c4cc(-c6ccccc6N)nnc4N)C5)c3)CC2)C(C)(C)C)cc1` [Example 102, (2S,4R)-1-[(2S)-2-[[11-[4-[[3-[3-[3-amino-6-(2-aminophenyl)pyridazin-4-yl]-3,8-diazabicyclo[3.2.1]octan-8-yl]phenyl]methyl]piperazin-1-yl]-11-oxo-undecanoyl]amino]-3,3-dimethyl-butanoyl]-4-hydroxy-N-[[4-(4-methylthiazol-5-yl)phenyl]methyl]pyrrolidine-2-carboxamide] are 59% and 992 nM.
`Cc1ncsc1-c1ccc(CNC(=O)[C@@H]2C[C@@H](O)CN2C(=O)[C@@H](NC(=O)CCCCCCCCC(=O)N2CCN(Cc3cccc(-c4cc(-c5ccccc5O)nnc4N)c3F)CC2)C(C)(C)C)cc1` [Example 74, (2S,4R)-1-[(2S)-2-[[10-[4-[[3-[3-amino-6-(2-hydroxyphenyl)pyridazin-4-yl]-2-fluoro-phenyl]methyl]piperazin-1-yl]-10-oxo-decanoyl]amino]-3,3-dimethyl-butanoyl]-4-hydroxy-N-[[4-(4-methylthiazol-5-yl)phenyl]methyl]pyrrolidine-2-carboxamide]: the Emax is 63% and the DC50 was found to be 575 nM.
On the same counts, the results for `Cc1ncsc1-c1ccc([C@H](C)NC(=O)[C@@H]2C[C@@H](O)CN2C(=O)[C@@H](NC(=O)CCCCCCCCCCC(=O)N2CCN(CCOc3ccc(N4CCCC(Oc5cc(-c6ccccc6O)nnc5N)C4)cc3)CC2)C(C)(C)C)cc1` (mixture of isomers) [Example 79, rac-(2S,4R)-4-hydroxy-1-[rac-(2S)-2-[[12-[4-[2-[4-[3-[3-amino-6-(2-hydroxyphenyl)pyridazin-4-yl]oxy-1-piperidyl]phenoxy]ethyl]piperazin-1-yl]-12-oxo-dodecanoyl]amino]-3,3-dimethyl-butanoyl]-N-[rac-(1S)-1-[4-(4-methylthiazol-5-yl)phenyl]ethyl]pyrrolidine-2-carboxamide] are 21% and 78 nM.
For `Cc1ncsc1-c1ccc([C@H](C)NC(=O)[C@@H]2C[C@@H](O)CN2C(=O)[C@@H](NC(=O)CCCCCCCCC(=O)N(C)CCCN(C)c2ccc(CCOc3cc(-c4ccccc4O)nnc3N)cc2)C(C)(C)C)cc1` (racemic) [Example 28, N′-[3-[4-[2-[3-amino-6-(2-hydroxyphenyl)pyridazin-4-yl]oxyethyl]-N-methyl-anilino]propyl]-N′-methyl-N-[rac-(1S)-2,2-dimethyl-1-[rac-(2S,4R)-4-hydroxy-2-[[rac-(1S)-1-[4-(4-methylthiazol-5-yl)phenyl]ethyl]carbamoyl]pyrrolidine-1-carbonyl]propyl]decanediamide], the Emax turned out to be 46% and the DC50 is 515 nM.
In the case of `Cc1ncsc1-c1ccc([C@H](C)NC(=O)[C@@H]2C[C@@H](O)CN2C(=O)[C@@H](NC(=O)CCCCCCCCCCCCC(=O)N2CCN(c3ccc(N4CCCC(Oc5cc(-c6ccccc6O)nnc5N)C4)cc3)CC2)C(C)(C)C)cc1` (mixture of isomers) [Example 76, rac-(2S,4R)-4-hydroxy-1-[rac-(2S)-2-[[14-[4-[4-[3-[3-amino-6-(2-hydroxyphenyl)pyridazin-4-yl]oxy-1-piperidyl]phenyl]piperazin-1-yl]-14-oxo-tetradecanoyl]amino]-3,3-dimethyl-butanoyl]-N-[rac-(1S)-1-[4-(4-methylthiazol-5-yl)phenyl]ethyl]pyrrolidine-2-carboxamide], the maximal response (Emax) was determined as 31% and the DC50 worked out at 207 nM.
In the case of `Cc1ncsc1-c1ccc(CNC(=O)[C@@H]2C[C@@H](O)CN2C(=O)[C@H](NC(=O)CCCCCC(=O)N2CCN(CCOc3cccc(N4C5CCC4CN(c4cc(-c6ccccc6O)nnc4N)C5)c3)CC2)C(C)(C)C)cc1` [Example 9, (2S,4R)-1-[(2R)-2-[[7-[4-[2-[3-[3-[3-amino-6-(2-hydroxyphenyl)pyridazin-4-yl]-3,8-diazabicyclo[3.2.1]octan-8-yl]phenoxy]ethyl]piperazin-1-yl]-7-oxo-heptanoyl]amino]-3,3-dimethyl-butanoyl]-4-hydroxy-N-[[4-(4-methylthiazol-5-yl)phenyl]methyl]pyrrolidine-2-carboxamide], the maximal effect (Emax) came out at 58% and the DC50 was 733 nM.
Regarding `Cc1ncsc1-c1ccc([C@H](C)NC(=O)[C@@H]2C[C@@H](O)CN2C(=O)[C@@H](NC(=O)CCCCCCCCC(=O)N2CCN(c3cccc(N4CCCC(Oc5cc(-c6ccccc6O)nnc5N)C4)c3)CC2)C(C)(C)C)cc1` (mixture of isomers) [Example 91, rac-(2S,4R)-4-hydroxy-1-[rac-(2S)-2-[[10-[4-[3-[3-[3-amino-6-(2-hydroxyphenyl)pyridazin-4-yl]oxy-1-piperidyl]phenyl]piperazin-1-yl]-10-oxo-decanoyl]amino]-3,3-dimethyl-butanoyl]-N-[rac-(1S)-1-[4-(4-methylthiazol-5-yl)phenyl]ethyl]pyrrolidine-2-carboxamide], the Emax turned out to be 44% and the DC50 was 600 nM.
`Cc1ncsc1-c1ccc([C@H](C)NC(=O)[C@@H]2C[C@@H](O)CN2C(=O)[C@@H](NC(=O)CCCCCCCCC(=O)N2CCN(c3ccc(CN4CCCC(Oc5cc(-c6ccccc6O)nnc5N)C4)cc3)CC2)C(C)(C)C)cc1` (mixture of isomers) [Example 41, rac-(2S,4R)-4-hydroxy-1-[rac-(2S)-2-[[10-[4-[4-[[3-[3-amino-6-(2-hydroxyphenyl)pyridazin-4-yl]oxy-1-piperidyl]methyl]phenyl]piperazin-1-yl]-10-oxo-decanoyl]amino]-3,3-dimethyl-butanoyl]-N-[rac-(1S)-1-[4-(4-methylthiazol-5-yl)phenyl]ethyl]pyrrolidine-2-carboxamide]: the Emax amounted to 63% and the DC50 worked out at 204 nM.
`Cc1ncsc1-c1ccc(CNC(=O)[C@@H]2C[C@@H](O)CN2C(=O)[C@@H](NC(=O)CCCCCCCCC(=O)N2CC(Oc3cc(-c4ccccc4O)nnc3N)CC(c3ccccc3)C2)C(C)(C)C)cc1` (mixture of isomers) [Example 67, Trans rac-(2S,4R)-4-hydroxy-N-[[4-(4-methylthiazol-5-yl)phenyl]methyl]-1-[rac-(2S)-2-[[10-[3-[3-amino-6-(2-hydroxyphenyl)pyridazin-4-yl]oxy-5-phenyl-1-piperidyl]-10-oxo-decanoyl]amino]-3,3-dimethyl-butanoyl]pyrrolidine-2-carboxamide]: the DC50 turned out to be 839 nM. For the setting “Emax = amount of residual protein remaining in the cell following compound treatment”, the “HiBit A549 SMARCA2 Emax (%)” value is 29%.
Consider `Cc1ncsc1-c1ccc(CNC(=O)[C@@H]2C[C@@H](O)CN2C(=O)[C@@H](NC(=O)CCCCCCCCC(=O)N2CCC(CNC(=O)C3(c4ccccc4)CCN(c4cc(-c5ccccc5O)nnc4N)CC3)CC2)C(C)(C)C)cc1` [Example 99, 1-[3-amino-6-(2-hydroxyphenyl)pyridazin-4-yl]-N-[[1-[10-[[(1S)-1-[(2S,4R)-4-hydroxy-2-[[4-(4-methylthiazol-5-yl)phenyl]methylcarbamoyl]pyrrolidine-1-carbonyl]-2,2-dimethyl-propyl]amino]-10-oxo-decanoyl]-4-piperidyl]methyl]-4-phenyl-piperidine-4-carboxamide], for which the Emax was found to be 59% and the DC50 was 827 nM.
On the same counts, the results for `Cc1ncsc1-c1ccc(CNC(=O)[C@@H]2C[C@@H](O)CN2C(=O)[C@@H](NC(=O)CCCCCCCCC(=O)N2CCN(CCOc3cccc(C#Cc4cc(-c5ccccc5O)nnc4N)c3)CC2)C(C)(C)C)cc1` [Example 35, (2S,4R)-1-[(2S)-2-[[10-[4-[2-[3-[2-[3-amino-6-(2-hydroxyphenyl)pyridazin-4-yl]ethynyl]phenoxy]ethyl]piperazin-1-yl]-10-oxo-decanoyl]amino]-3,3-dimethyl-butanoyl]-4-hydroxy-N-[[4-(4-methylthiazol-5-yl)phenyl]methyl]pyrrolidine-2-carboxamide] are 39% and 952 nM.
Regarding `Cc1ncsc1-c1ccc([C@H](C)NC(=O)[C@@H]2C[C@@H](O)CN2C(=O)[C@@H](NC(=O)CCC(=O)N2CCN(CCOc3cccc(CCOc4cc(-c5ccccc5O)nnc4N)c3)CC2)C(C)(C)C)cc1` [Example 73, (2S,4R)-1-[(2S)-2-[[4-[4-[2-[3-[2-[3-amino-6-(2-hydroxyphenyl)pyridazin-4-yl]oxyethyl]phenoxy]ethyl]piperazin-1-yl]-4-oxo-butanoyl]amino]-3,3-dimethyl-butanoyl]-4-hydroxy-N-[(1S)-1-[4-(4-methylthiazol-5-yl)phenyl]ethyl]pyrrolidine-2-carboxamide], the maximum response (Emax) was 29% and the DC50 amounted to 1650 nM.
On the same counts, the results for `Cc1ncsc1-c1ccc(CNC(=O)[C@@H]2C[C@@H](O)CN2C(=O)[C@@H](NC(=O)CCCCCCCCC(=O)N2CCN(CCOc3ccc(N4C5CCC4CN(c4cc(-c6ccccc6O)nnc4N)C5)cc3)CC2)C(C)(C)C)cc1` [Example 68, (2S,4R)-1-[(2S)-2-[[10-[4-[2-[4-[3-[3-amino-6-(2-hydroxyphenyl)pyridazin-4-yl]-3,8-diazabicyclo[3.2.1]octan-8-yl]phenoxy]ethyl]piperazin-1-yl]-10-oxo-decanoyl]amino]-3,3-dimethyl-butanoyl]-4-hydroxy-N-[[4-(4-methylthiazol-5-yl)phenyl]methyl]pyrrolidine-2-carboxamide] are 50% and 2320 nM.

As usually defined, the Emax is the maximal effect, on the per cent scale that the assay sets.
